Measured values reported in patent publication US10640545B2 (THE GOVERNORS OF THE UNIVERSITY OF ALBERTA, priority 2017, dated 2020).
Several values for one entry are separate records, joined by “and”; a condition that tells them apart may be missing. Identical values can stand only once. Values belong to the molecule of their own block, whether it stands above or below them. Where a SMILES comes first, the peptide text is derived from it. [ ]: non-standard residue; d: D form. The star is where a group is joined. Phe(4-Br) = N[C@@H](Cc1ccc(Br)cc1)C(=O)O; Fmoc = O=C(OCC1c2ccccc2-c2ccccc21)*; PEG6 = NCCOCCOCCOCCOCCOCCOCCC(=O)O; NMeL = CN[C@@H](CC(C)C)C(=O)O; Nle = CCCC[C@H](N)C(=O)O; Aib = CC(C)(N)C(=O)O

Assays:
[1] = target: T1, KLKB1 (Homo sapiens, UniProt P03952); experiment: In vitro KLKB1 stability (half-life); format: in vitro ADME; set-up: purchased Novoprotein; conditions: human; rhKLKB1, 37° C.; read-out: t1/2 (rhKLKB1, h) (converted)
[2] = target: neprilysin (NEP) (Homo sapiens, UniProt P08473); experiment: Neprilysin degradation assay (LC-MS, quantitative); conditions: human, pH 7.5
Method: This experiment compared the in vitro NEP stability of the Arg/Leu peptides of the embodiments to native apelin isoforms and their A2 substituted counterparts. Peptides were incubated with recombinant human NEP (rhNEP, Sino Biological) at 37° C. for up to 72 h, and the extent of degradation was analyzed via LC-MS because of the overlapping elution patterns of peptide fragments. […] (McKinnie, S. M. K., et al. ChemBioChem: 17, 1495-1498 (2016)). […] (Dion, N., et al., Biochem. J.: 311, 623-627 (1995); Bateman Jr., R. C., et al., J. Biol. Chem.: 264, 6151-6157 (1989); McMurray, J. J. et al., J. Med.: 371, 993-1004 (2014)).
Apelin peptides were dissolved in Milli-Q water (1 mM). Recombinant human neprilysin (rhNEP, Sino Biological) was reconstituted in Tris buffer (100 mM Tris, 100 mM NaCl, 10 μM ZnCl2, pH 7.5). To initiate the assay, rhNEP was diluted in Tris buffer (3.1 nM final concentration), and preincubated at 37° C. for 10 minutes prior to the addition of 5 μL of apelin peptide (1 mM) and 1.5 μL internal standard dansyl-Tyr-Val-Gly-OH (1 mM). Aliquots (10 μL) were removed at 0, 1, 4, 24, and 72 h, quenched with 0.1 M EDTA (10 μL), diluted to 100 μL with Milli-Q water and analyzed by LC-MS. Assays were performed in triplicate (n=3) for each time point. Integrated peak areas of the parent apelin peptide and internal standard derived from LC-MS analyses, were extracted using Mass Hunter software (version B.04.00) and compared in positive extracted ion count modus (+EIC, extracted-ion chromatogram). […] (apelin:dansyl-YVG), to the same ratio at the different assay time points. The decrease in apelin:dansyl-YVG ratio was converted to a percentage of cleaved peptide over time.
The extent of degradation was analyzed via LC-MS because of the overlapping elution patterns of peptide fragments (NEP).
Native apelin-17 (2) and apelin peptides 5, 54, 56, 57, 58 and 59 were dissolved in Milli-Q water (1 mM). Recombinant human neprilysin (rhNEP, Sino Biological) was reconstituted in Tris buffer (100 mM Tris, 100 mM NaCl, 10 μM ZnCl2, pH 7.5). To initiate the assay, rhNEP was diluted in Tris buffer (3.1 nM final concentration) and preincubated at 37° C. for 10 min prior to the addition of 5 μL of apelin peptide (1 mM) and 1.5 μL of internal standard dansyl-Tyr-Val-Gly-OH (1 mM). Aliquots (10 μL) were removed at 0, 1, 4, 24, and 72 h, quenched with 0.1 M EDTA (10 μL), diluted to 100 μL with Milli-Q water, and analyzed by LC-MS. Assays were performed in triplicate (n=3) for each time point. Integrated peak areas of the parent apelin peptide and internal standard derived from LC-MS analyses were extracted using Mass Hunter software (version B.04.00) and compared in positive extracted ion count modus (+EIC). The extent of proteolysis was determined by comparing the initial (0 h) ratio of the integrated extracted ions of the parent apelin peptide to the internal dansyl-YVG standard (apelin/dansyl-YVG) to the same ratio at the different assay time points. The decrease in apelin/dansyl-YVG ratio was converted to a percentage of cleaved peptide over time.

[3] = target: Recombinant Human Neprilysin (Homo sapiens, UniProt P08473); experiment: Neprilysin qualitative cleavage assay (MALDI-TOF); conditions: rhNEP 2 ng/μL, 37° C., first degradation products by MALDI-TOF
Method: Native apelin-17 (2) and apelin peptides 5, 54, 56, 57, 58 and 59 were dissolved in Milli-Q water (1 mM). Recombinant Human Neprilysin (rhNEP, Sino Biological) was reconstituted in Tris buffer (100 mM Tris, 100 mM NaCl, 10 mM ZnCl2, pH 7.5). To initiate the assays, rhNEP was diluted in Tris buffer to a 2 ng/μL final concentration, and pre-incubated at 37° C. for 10 minutes prior to the addition of 5 μL of apelin peptide (1 mM). Aliquots (1 μL) were taken at 1, 2, 4, 6, 12, 24, 36, and 48 hours and analyzed with MALDI-TOF mass spectrometry to qualitatively determine the time point at which degradation products could be observed.

[4] = target: Human plasma kallikrein KLKB1 (Homo sapiens, UniProt P03952); experiment: Plasma kallikrein KLKB1 qualitative cleavage assay (MALDI-TOF); conditions: KLKB1, 37° C., first degradation products by MALDI-TOF
Method: Native apelin-17 (2) and apelin peptides 5, 56, 57, 58 and 59 were dissolved in Milli-Q water (1 mM). Human plasma kallikrein KLKB1 were each reconstituted in Tris buffer (100 mM TrisHCl, 10 mM CaCl2), 150 mM NaCl) and diluted with Tris buffer (50 mM TrisHCl, 250 mM NaCl) to give a KLKB1 concentration of […]. The KLKB1 enzyme was then preincubated at 37° C. for 10 minutes prior to the addition of 5 μL of apelin peptide (1 mM). Aliquots (1 μL) were taken at 1, 2, 4, 6, 12, 24, 36, and 48 hours and analyzed with MALDI-TOF mass spectrometry to qualitatively determine the time point at which degradation products could be observed (Table 4).

[5] = test system: neprilysin (rhNEP); experiment: recombinant human NEP (rhNEP, Sino Biological) in Tris buffer (100 mM Tris, 100 mM NaCl, 10 μM ZnCl2, pH 7.5); conditions: 37° C, up to 72 h
[6] = test system: recombinant human neprilysin (rhNEP, Sino Biological); experiment: rhNEP diluted in Tris buffer (100 mM Tris, 100 mM NaCl, 10 μM ZnCl2, pH 7.5), 3.1 nM final concentration; conditions: 37° C., up to 72 h
[7] = human blood plasma (20 μL of plasma); conditions: 37° C., up to 60 min
[8] = test system: KLKB1 (rhKLKB1, Novoprotein); experiment: Human plasma kallikrein KLKB1 in Tris buffer, KLKB1 concentration of 2 ng/pL; conditions: 37° C., up to 48 hours
[9] = target: T1, KLKB1; conditions: enzyme KLKB1, data from Gozzo et al. 2006; cited from earlier work

T1 sequence (P03952 20-638): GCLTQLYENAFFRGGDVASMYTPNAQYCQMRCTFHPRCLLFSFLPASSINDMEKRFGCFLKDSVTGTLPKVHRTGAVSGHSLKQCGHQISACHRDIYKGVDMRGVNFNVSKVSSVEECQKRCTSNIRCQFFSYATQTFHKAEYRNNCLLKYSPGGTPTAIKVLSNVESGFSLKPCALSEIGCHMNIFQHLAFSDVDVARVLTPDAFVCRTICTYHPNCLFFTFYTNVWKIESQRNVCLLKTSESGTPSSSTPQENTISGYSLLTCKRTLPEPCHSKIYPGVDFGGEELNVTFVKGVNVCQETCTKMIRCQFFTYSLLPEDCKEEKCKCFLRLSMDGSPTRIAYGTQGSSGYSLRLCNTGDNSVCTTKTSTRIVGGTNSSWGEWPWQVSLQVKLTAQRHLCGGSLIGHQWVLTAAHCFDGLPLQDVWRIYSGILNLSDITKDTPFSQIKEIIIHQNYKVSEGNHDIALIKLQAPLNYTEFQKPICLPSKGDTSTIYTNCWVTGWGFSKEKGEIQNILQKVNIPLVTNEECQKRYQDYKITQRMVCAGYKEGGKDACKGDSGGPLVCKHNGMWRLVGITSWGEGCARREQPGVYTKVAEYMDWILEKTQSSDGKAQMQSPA
Sequence of Recombinant Human Neprilysin (P08473 whole entry): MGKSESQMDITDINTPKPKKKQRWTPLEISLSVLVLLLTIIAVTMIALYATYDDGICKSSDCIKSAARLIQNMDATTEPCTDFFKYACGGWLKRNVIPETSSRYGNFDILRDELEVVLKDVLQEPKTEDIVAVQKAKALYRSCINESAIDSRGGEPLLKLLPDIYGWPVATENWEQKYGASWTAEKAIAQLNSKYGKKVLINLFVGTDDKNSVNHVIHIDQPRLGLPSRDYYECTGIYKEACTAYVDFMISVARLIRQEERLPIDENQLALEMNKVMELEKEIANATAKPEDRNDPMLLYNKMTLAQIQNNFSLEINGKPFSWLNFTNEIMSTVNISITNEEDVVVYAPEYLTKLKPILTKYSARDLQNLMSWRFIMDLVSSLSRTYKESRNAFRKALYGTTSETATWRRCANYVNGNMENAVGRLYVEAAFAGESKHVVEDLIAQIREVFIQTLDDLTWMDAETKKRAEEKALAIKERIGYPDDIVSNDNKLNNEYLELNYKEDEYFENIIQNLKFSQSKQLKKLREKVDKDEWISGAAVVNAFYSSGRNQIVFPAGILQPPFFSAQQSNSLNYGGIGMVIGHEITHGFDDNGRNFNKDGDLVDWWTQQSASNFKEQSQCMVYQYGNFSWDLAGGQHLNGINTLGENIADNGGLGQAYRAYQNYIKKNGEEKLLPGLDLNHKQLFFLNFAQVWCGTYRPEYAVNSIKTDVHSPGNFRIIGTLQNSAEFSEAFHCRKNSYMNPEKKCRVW
Sequence of neprilysin (NEP) (P08473 whole entry, the tested form may be a part, canonical isoform): as the sequence (P08473 whole entry) above
Sequence of Human plasma kallikrein KLKB1 (P03952 20-638): as the sequence (P03952 20-638) above

Molecule: CCCC[C@H](NC(=O)[C@@H]1CCCN1C(=O)CNC(=O)[C@H](CCCCN)NC(=O)[C@H](Cc1cnc[nH]1)NC(=O)[C@H](CO)NC(=O)[C@H](CC(C)C)NC(=O)[C@H](CCCNC(=N)N)NC(=O)[C@@H]1CCCN1C(=O)[C@H](CCCNC(=N)N)NC(=O)[C@H](CCC(N)=O)NC(=O)[C@H](CCCNC(=N)N)NC(=O)[C@H](CCCNC(=N)N)NC(=O)[C@H](Cc1ccccc1)NC(=O)[C@H](CCCCN)NC(=O)CCOCCOCCOCCOCCOCCOCCNC(=O)OCC1c2ccccc2-c2ccccc21)C(=O)NC(C)(C)C(=O)N[C@@H](Cc1ccc(Br)cc1)C(=O)O [Peptide 57] ({Fmoc-PEG6}-KFRRQRPRLSHKGP[Nle][Aib][Phe(4-Br)]-OH)
- half-life [1]: 1.4 h
- half-life [2]: > 1800 min
- Degradation Onset Timepoint with NEP [3]: 12 h
- Degradation Onset Timepoint with KLKB1 [4]: 1 h

Molecule: CCCC[C@H](NC(=O)[C@@H]1CCCN1C(=O)CNC(=O)[C@H](CCCCN)NC(=O)[C@H](Cc1cnc[nH]1)NC(=O)[C@H](CO)NC(=O)[C@H](CC(C)C)N(C)C(=O)[C@H](CCCNC(=N)N)NC(=O)[C@@H]1CCCN1C(=O)[C@H](CCCNC(=N)N)NC(=O)[C@H](CCC(N)=O)NC(=O)[C@H](CCCNC(=N)N)NC(=O)[C@H](CCCNC(=N)N)NC(=O)[C@H](Cc1ccccc1)NC(=O)[C@H](CCCCN)NC(=O)CCOCCOCCOCCOCCOCCOCCNC(=O)OCC1c2ccccc2-c2ccccc21)C(=O)NC(C)(C)C(=O)N[C@@H](Cc1ccc(Br)cc1)C(=O)O [Peptide 59] ({Fmoc-PEG6}-KFRRQRPR[NMeL]SHKGP[Nle][Aib][Phe(4-Br)]-OH)
- half-life [1]: 2.9 h
- half-life [2]: > 1800 min
- Degradation Onset Timepoint with NEP [3]: >36 h
- Degradation Onset Timepoint with KLKB1 [4]: 2 h

- cleaved bond [5]: Nle15-Aib16, minor
- cleaved bond [6]: Nle15-Aib16, minor
Molecule: Lys-Phe-Arg-Arg-Gln-Arg-Pro-Arg-D-Leu-Ser-His-Lys-Gly-Pro-Nle-Aib-paraBrPhe

- fragment found [7]: 1-3 and 4-17
- cleaved bond [8]: Arg3-Arg4, <30 min
Molecule: Lys-Phe-Arg-Arg-Gln-Arg-Pro-Arg-Leu-Ser-His-Lys-Gly-Pro-Nle-Aib-paraBrPhe

- not cleaved [7]: 94 ± 3 % apelin at 60 min
- cleaved bond [6]: Nle15-Aib16, minor
Molecule: Lys-Phe-Arg-Arg-Gln-Arg-Pro-azaArg-Leu-Ser-His-Lys-Gly-Pro-Nle-Aib-paraBrPhe

- cleaved bond [5]: Nle11-Aib12, minor
- cleaved bond [6]: Nle11-Aib12, minor
Molecule: pGlu-Arg-Pro-Arg-D-Leu-Ser-His-Lys-Gly-Pro-Nle-Aib-paraBrPhe

B1: Kininogen: KLKB1 substrate, kinetic data from Gozzo et al. (protein, UniProt P01042 19-644, looked up)
Kininogen-1: QESQSEEIDCNDKDLFKAVDAALKKYNSQNQSNNQFVLYRITEATKTVGSDTFYSFKYEIKEGDCPVQSGKTWQDCEYKDAAKAATGECTATVGKRSSTKFSVATQTCQITPAEGPVVTAQYDCLGCVHPISTQSPDLEPILRHGIQYFNNNTQHSSLFMLNEVKRAQRQVVAGLNFRITYSIVQTNCSKENFLFLTPDCKSLWNGDTGECTDNAYIDIQLRIASFSQNCDIYPGKDFVQPPTKICVGCPRDIPTNSPELEETLTHTITKLNAENNATFYFKIDNVKKARVQVVAGKKYFIDFVARETTCSKESNEELTESCETKKLGQSLDCNAEVYVVPWEKKIYPTVNCQPLGMISLMKRPPGFSPFRSSRIGEIKEETTVSPPHTSMAPAQDEERDSGKEQGHTRRHDWGHEKQRKHNLGHGHKHERDQGHGHQRGHGLGHGHEQQHGLGHGHKFKLDDDLEHQGGHVLDHGHKHKHGHGHGKHKNKGKKNGKHNGWKTEHLASSSEDSTTPSAQTQEKTEGPTPIPSLAKPGVTVTFSDFQDSDLIATMMPPISPAPIQSDDDWIPDIQIDPNGLSFNPISDFPDTTSPKCPGRPWKSVSEINPTTQMKESYYFDLTDGLS
- Km [9]: 750 nM
- kcat [9]: 0.031 s⁻¹
